Test results from article PMC8830500, “Small Molecule Palmatine Targeting Musashi-2 in Colorectal Cancer” (Frontiers in Pharmacology, 2022).

How the values were obtained:
Format in all cases: binding
[1] = biological target: Musashi-2 (MSI2) (Homo sapiens, UniProt Q96DH6); assay: MST with GFP-tagged protein in HEK293FT lysate; CETSA in HCT116 cells
[2] = biological target: T1, LIN28A (Homo sapiens, UniProt Q9H9Z2); assay: MST with GFP-tagged protein in cell lysate
T1 construct: GFP-tagged, HEK293FT lysate
T1 sequence (Q9H9Z2 2-209): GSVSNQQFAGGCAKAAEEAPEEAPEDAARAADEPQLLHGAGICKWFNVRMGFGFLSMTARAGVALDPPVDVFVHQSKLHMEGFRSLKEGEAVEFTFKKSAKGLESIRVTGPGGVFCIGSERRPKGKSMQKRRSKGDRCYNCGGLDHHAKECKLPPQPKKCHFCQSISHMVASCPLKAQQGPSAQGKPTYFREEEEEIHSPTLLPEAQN

[3] = biological target: T2, HUR (Homo sapiens, UniProt Q15717); assay: MST with GFP-tagged protein in cell lysate
T2 construct: gene ELAVL1; GFP-tagged, HEK293FT lysate
T2 sequence (Q15717 2-326): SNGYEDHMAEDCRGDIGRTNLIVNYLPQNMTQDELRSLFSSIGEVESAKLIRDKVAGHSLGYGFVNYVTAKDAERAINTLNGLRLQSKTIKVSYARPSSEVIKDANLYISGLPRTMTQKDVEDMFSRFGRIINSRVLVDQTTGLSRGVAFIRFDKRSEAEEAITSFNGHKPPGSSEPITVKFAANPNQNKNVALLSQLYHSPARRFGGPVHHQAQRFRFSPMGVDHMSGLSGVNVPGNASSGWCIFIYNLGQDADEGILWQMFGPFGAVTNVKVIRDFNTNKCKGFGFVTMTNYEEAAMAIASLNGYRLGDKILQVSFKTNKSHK

Chain of Musashi-2 (MSI2) (Q96DH6 whole entry): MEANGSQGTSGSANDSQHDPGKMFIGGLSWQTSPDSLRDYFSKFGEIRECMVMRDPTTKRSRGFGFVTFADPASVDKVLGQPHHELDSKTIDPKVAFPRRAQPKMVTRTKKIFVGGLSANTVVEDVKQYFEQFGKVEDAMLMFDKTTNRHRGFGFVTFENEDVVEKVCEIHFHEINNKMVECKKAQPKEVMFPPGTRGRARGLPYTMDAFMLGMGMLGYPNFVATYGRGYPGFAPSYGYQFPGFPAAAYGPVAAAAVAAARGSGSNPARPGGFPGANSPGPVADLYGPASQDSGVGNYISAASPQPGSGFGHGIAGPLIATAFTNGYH

SMILES: COc1cc2c(cc1OC)-c1cc3ccc(OC)c(OC)c3c[n+]1CC2 [palmatine]
- Kd [1]: 17 µM
- Kd [2]: 49.6 µM
- Kd [3]: 33.5 µM
